Data published in patent US20230365553A1, “COMPOUNDS AND COMPOSITIONS FOR TREATING CONDITIONS ASSOCIATED WITH STING ACTIVITY” (IFM Due, Inc., priority 2020, published 2023).

Target: T1, STING (Homo sapiens, UniProt Q86WV6, G230A/H232R/R293Q/R71H)
T1 construct: host or cells: THP1-Dual KO-IFNAR2 cells
Experiment: STING reporter assay: luciferase reporter activity in THP1-Dual KO-IFNAR2 cells stimulated with 2′3′cGAMP
Format: cell-based
Settings: 15 μM 2′3′cGAMP, 24h, read-out: hSTING EC50
Protocol: STING pathway activation by the compounds described herein was measured using THP 1-Dual™ cells (KO-IFNAR2).
THP1-Dual™ KO-IFNAR2 Cells (obtained from invivogen) were maintained in RPMI, 10% FCS, 5 ml P/S, 2 mM L-glut, 10 mM Hepes, and 1 mM sodium pyruvate. Compounds were spotted in empty 384 well tissue culture plates (Greiner 781182) by Echo for a final concentration of 0.0017-100 μM. Cells were plated into the TC plates at 40 μL per well, 2×10E6 cells/mL. For activation with STING ligand, 2′3′cGAMP (MW 718.38, obtained from Invivogen), was prepared in Optimem media.
The following solutions were prepared for each 1×384 plate: • Solution A: 2 mL Optimem with one of the following stimuli: • 60 μL of 10 mM 2′3′cGAMP→150 μM stock • Solution B: 2 mL Optimem with 60 μL Lipofectamine 2000→Incubate 5 min at RT
2 mL of solution A and 2 ml Solution B was mixed and incubated for 20 min at room temperature (RT). 20 μL of transfection solution (A+B) was added on top of the plated cells, with a final 2′3′cGAMP concentration of 15 μM. The plates were then centrifuged immediately at 340 g for 1 minute, after which they were incubated at 37° C., 5% CO2, >98% humidity for 24h. Luciferase reporter activity was then measured. EC50 values were calculated by using standard methods known in the art.
Luciferase reporter assay: 10 μL of supernatant from the assay was transferred to white 384-plate with flat bottom and squared wells. One pouch of QUANTI-Luc™ Plus was dissolved in 25 mL of water. 100 μL of QLC Stabilizer per 25 mL of QUANTI-Luc™ Plus solution was added. 50 μL of QUANTI-Luc™ Plus/QLC solution per well was then added. Luminescence was measured on a Platereader (e.g., Spectramax I3X (Molecular Devices GF3637001)).
Luciferase reporter activity was then measured. EC50 values were calculated by using standard methods known in the art.

T1 sequence (Q86WV6 whole entry R71H/G230A/H232R/R293Q): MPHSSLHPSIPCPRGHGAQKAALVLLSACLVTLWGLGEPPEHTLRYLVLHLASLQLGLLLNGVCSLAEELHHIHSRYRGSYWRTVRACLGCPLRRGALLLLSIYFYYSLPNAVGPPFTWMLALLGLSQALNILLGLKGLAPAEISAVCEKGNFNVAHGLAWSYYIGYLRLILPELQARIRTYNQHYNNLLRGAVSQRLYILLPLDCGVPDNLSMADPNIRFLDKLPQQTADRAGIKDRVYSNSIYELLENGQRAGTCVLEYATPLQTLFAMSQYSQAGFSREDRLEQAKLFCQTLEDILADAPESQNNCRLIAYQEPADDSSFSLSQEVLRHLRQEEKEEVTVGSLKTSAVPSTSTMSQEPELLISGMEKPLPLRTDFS

EC50 | SMILES
1000 to 5000 nM | CCC(=O)Nc1c[nH]c2ccc(-c3ccn(-c4ccc(C(F)(F)F)cc4)n3)cc12 [Compound 117, N-(5-(1-(4-(trifluoromethyl)phenyl)-1H-pyrazol-3-yl)-1H-indol-3-yl)propionamide]
1000 to 5000 nM | CCC(=O)Nc1c[nH]c2ccc(-c3ccc(-c4cnn(C(C)C)c4)cc3)cc12 [Compound 118, N-(5-(4-(1-isopropyl-1H-pyrazol-4-yl)phenyl)-1H-indol-3-yl)propionamide]
200 to 1000 nM | CCC(=O)Nc1c[nH]c2ccc(-c3cnn(-c4ccc(Cl)cc4)c3)cc12 [Compound 119, N-(5-(1-(4-chlorophenyl)-1H-pyrazol-4-yl)-1H-indol-3-yl)propionamide]
1000 to 5000 nM | CCC(=O)Nc1c[nH]c2ccc(-c3cnn(-c4ccc(CC)nc4)c3)cc12 [Compound 120, N-(5-(1-(6-ethylpyridin-3-yl)-1H-pyrazol-4-yl)-1H-indol-3-yl)propionamide]
200 to 1000 nM | CCc1ccc(-n2cc(-c3ccc4[nH]cc(NC(=O)C5CC(=O)N5)c4c3)cn2)cc1 (centres unmarked) [Compound 121, N-(5-(1-(4-ethylphenyl)-1H-pyrazol-4-yl)-1H-indol-3-yl)-4-oxoazetidine-2-carboxamide]
200 to 1000 nM | CCc1ccc(-n2cc(-c3ccc4[nH]cc(NC(=O)C5CCCO5)c4c3)cn2)cc1 (centres unmarked) [Compound 122, N-(5-(1-(4-ethylphenyl)-1H-pyrazol-4-yl)-1H-indol-3-yl)tetrahydrofuran-2-carboxamide]
40 to 200 nM | CCc1ccc(-n2cc(-c3ccc4[nH]cc(NC(=O)C5CCCCC5)c4c3)cn2)cc1 [Compound 123, N-(5-(1-(4-ethylphenyl)-1H-pyrazol-4-yl)-1H-indol-3-yl)cyclohexanecarboxamide]
40 to 200 nM | CCc1ccc(-n2cc(-c3ccc4[nH]cc(NC(=O)C5CCC5)c4c3)cn2)cc1 [Compound 124, N-(5-(1-(4-ethylphenyl)-1H-pyrazol-4-yl)-1H-indol-3-yl)cyclobutanecarboxamide]
5000 to 100000 nM | CCc1ccc(-n2cc(-c3ccc4[nH]cc(NC(=O)CN(C)C)c4c3)cn2)cc1 [Compound 125, 2-(dimethylamino)-N-(5-(1-(4-ethylphenyl)-1H-pyrazol-4-yl)-1H-indol-3-yl)acetamide]
200 to 1000 nM | CCc1ccc(-n2cc(-c3ccc4[nH]cc(NC(=O)CO)c4c3)cn2)cc1 [Compound 126, N-(5-(1-(4-ethylphenyl)-1H-pyrazol-4-yl)-1H-indol-3-yl)-2-hydroxyacetamide]
200 to 1000 nM | CCC(=O)Nc1c[nH]c2ccc(-c3cnn(Cc4cccc(C(F)(F)F)c4)c3)cc12 [Compound 127, N-(5-(1-(3-(trifluoromethyl)benzyl)-1H-pyrazol-4-yl)-1H-indol-3-yl)propionamide]
200 to 1000 nM | CCC(=O)Nc1c[nH]c2ccc(-c3cnn(-c4cccc(CC)c4)c3)cc12 [Compound 128, N-(5-(1-(3-ethylphenyl)-1H-pyrazol-4-yl)-1H-indol-3-yl)propionamide]
5000 to 100000 nM | CCc1ccc(-n2cc(-c3ccc4[nH]cc(NC(=O)C5CN(C)C5)c4c3)cn2)cc1 [Compound 129, N-(5-(1-(4-ethylphenyl)-1H-pyrazol-4-yl)-1H-indol-3-yl)-1-methylazetidine-3-carboxamide]
200 to 1000 nM | CCc1ccc(-n2cc(-c3ccc4[nH]cc(NC(=O)/C=C/COC)c4c3)cn2)cc1 [Compound 130, (E)-N-(5-(1-(4-ethylphenyl)-1H-pyrazol-4-yl)-1H-indol-3-yl)-4-methoxybut-2-enamide]
5000 to 100000 nM | CCC(=O)Nc1c[nH]c2ccc(N3CCN(c4ccccc4)CC3)cc12 [Compound 131, N-(5-(4-phenylpiperazin-1-yl)-1H-indol-3-yl)propionamide]
200 to 1000 nM | CCc1ccc(-n2cc(-c3ccc4[nH]cc(NC(=O)C(C)O)c4c3)cn2)cc1 (centres unmarked) [Compound 132, N-(5-(1-(4-ethylphenyl)-1H-pyrazol-4-yl)-1H-indol-3-yl)-2-hydroxypropanamide]
40 to 200 nM | CCc1ccc(-n2cc(-c3ccc4[nH]cc(NC(=O)C(C)C)c4c3)cn2)cc1 [Compound 133, N-(5-(1-(4-ethylphenyl)-1H-pyrazol-4-yl)-1H-indol-3-yl)isobutyramide]
